Series [1] is described as follows: Phase solubility study of Compound I with HP-β-CD and L-lysine. Format: physicochemical. The settings on record: for solubility at 7 days: 25 °C, thermodynamic from solid. On the procedure: Solubility studies were performed as described by Higuchi, T., and Connors, K. A., Advances in Analytical Chemistry and Instrumentation 4 (1965) 117-212. Excess amounts of Compound I were added to increasing concentrations of HP-β-CD (0-200 mM) in 5 ml dissolution media, either purified water or L-lysine solutions (50 mM or 500 mM). The glass containers were sealed and the suspensions were shaken in a water-bath at 25° C. until complexation equilibrium was reached (7 days). An aliquot was filtered through a 0.45 μm PVDF membrane filter and assayed for Compound I content by a validated liquid chromatography (LC) method.

In series [2] the test system is allergen-induced airway inflammation. Nature of the series: Mouse model of asthma (OVA), intraperitoneal injection of Compound I. Format: in vivo, mice. The settings on record: 3.75 to 30 mg/kg. On the procedure: In order to study the modulation of airway inflammation by intraperitoneal injection of Compound I, mice were sensitized with 10 μg ovalbumin alumin-adsorbed (aluminject, perbio, Erembodegem, Belgium) injected intraperitonealy at days 0 and 7 and were subsequently exposed to OVA 1% or PBS aerosols for 30 minutes from day 21 to 24. Intraperitoneal injections were performed 30 min before OVA inhalations. The different injected formulations were: cremophor 10%-DMSO 10%-PBS 80%- Compound I30 mg/kg (suspension); cremophor 10%-DMSO 10%-PBS 80%- Compound I3.75 mg/kg (solution); HPβCD 200 mM Compound I 7.5 mg/kg (solution); HPβCD 200 mM. […]
Twenty-four hours after the last allergen exposure, the bronchial hyper responsiveness was determined by measuring the Penh using a barometric plethysmograph as proposed by Hamelmann, E., et al., Am. […] The Penh was measured at baseline and 5 min after the inhalation of increasing doses (25, 50, 75 and 100 mM) of methacholine (Mch).
Immediately after the assessment of airway responsiveness, mice were sacrificed and 1 ml of PBS free of ionised calcium and magnesium but supplemented with 0.05 mM sodium EDTA was instilled 4 times via a tracheal cannula and recovered by gentle manual aspiration. […] A value from 0 to 3 per criteria was adjudged to each tissue section scored. […]

Series [3] relates to allergen-induced airway inflammation and bronchial hyperresponsiveness. Nature of the series: Mouse model of asthma (OVA), inhalation, short exposure challenge. Format: in vivo, mice. The settings on record: inhalation of 40 mg/ml solution in pure DMSO, short-term exposure, vs DMSO alone. On the procedure: In order to study the modulation of airway inflammation by intraperitoneal injection of Compound I, mice were sensitized with 10 μg ovalbumin alumin-adsorbed (aluminject, perbio, Erembodegem, Belgium) injected intraperitonealy at days 0 and 7 and were subsequently exposed to OVA 1% or PBS aerosols for 30 minutes from day 21 to 24. Intraperitoneal injections were performed 30 min before OVA inhalations. The different injected formulations were: cremophor 10%-DMSO 10%-PBS 80%- Compound I30 mg/kg (suspension); cremophor 10%-DMSO 10%-PBS 80%- Compound I3.75 mg/kg (solution); HPβCD 200 mM Compound I 7.5 mg/kg (solution); HPβCD 200 mM. All results were compared to mice sensitized and exposed to PBS and OVA treated with PBS injected intraperitonealy. In order to study the modulation of airway inflammation by inhaled Compound I, mice were sensitized as described previously. Two protocols referred to as short exposure challenge and long-term exposure challenge were used. In the short exposure challenge, mice were exposed to aerosols of Compound I-complex at concentrations of 0.03 and 0.3 mg/ml of active compound in aqueous solution of from day 21 to 27 during 30 min in a Plexiglas exposure chamber (30×20×15 cm). Mice were exposed to OVA aerosols 30 minutes after the Compound I inhalation from day 23 to 27. In the so called long-term inhalation challenge, mice were exposed to aerosols of Compound Iat concentrations of 0.03 and 0.3 mg/ml complexed with HPβCD in an aqueous solution during 30 min five days odd weeks and to OVA aerosols 3 days odd weeks for 11 weeks. No inhalations were performed during even weeks.
The aerosol were produced by using an ultrasonic nebuliser SYSTAM (Systeme Assistance Medical, Le Ledat, France), the vibration frequency of which is 2.4 MHz with variable vibration intensity and ventilation levels. Vibration intensity was fixed in position 6 and the ventilation level was 25(ν1/2)1/min.
Twenty-four hours after the last allergen exposure, the bronchial hyper responsiveness was determined by measuring the Penh using a barometric plethysmograph as proposed by Hamelmann, E., et al., Am. J Respir. Crit. Care Med. 156 (1997) 766-775). The Penh was measured at baseline and 5 min after the inhalation of increasing doses (25, 50, 75 and 100 mM) of methacholine (Mch).
Immediately after the assessment of airway responsiveness, mice were sacrificed and 1 ml of PBS free of ionised calcium and magnesium but supplemented with 0.05 mM sodium EDTA was instilled 4 times via a tracheal cannula and recovered by gentle manual aspiration. The recovered bronchoalveolar lavage fluid (BAL) was centrifuged (1800 rpm for 10 min at 4° C.). […] A value from 0 to 3 per criteria was adjudged to each tissue section scored. […]

SMILES strings stand for the structures. In brackets after ≈: the same amount, converted by molar mass. Several values for one entry are separate records, joined by “and”; a condition that tells them apart may be missing. Equal entries are not always repeated. Where two headings read alike, the source gives them in different places.

Here are results for 1 molecule from patent publication US20070225253A1, “Use of a trioxopyrimidine for the treatment and prevention of bronchial inflammatory diseases” (priority 2004, published 2007).

For orientation: solubility means the concentration that dissolves in the medium under given conditions. With `O=C1NC(=O)C(c2ccc(-c3ccccc3)cc2)(N2CCN(c3ccc([N+](=O)[O-])cc3)CC2)C(=O)N1` [Compound I, 5-Biphenyl-4-yl-5-[4-(4-nitro-phenyl)-piperazin-1-yl]pyrimidine-2,4,6-trione], the solubility at 7 days in series [1] (50 mM L-lysine solution with 200 mM HP-β-CD, aqueous with cosolvent or surfactant or cyclodextrin, L-lysine 50 mM, 25° C., read-out: Solubility with HP-β-CD (200 mM)) is 17100 µg/mL (≈ 35.2 mM); in series [1] (50 mM L-lysine solution, no cyclodextrin, aqueous buffer, L-lysine 50 mM, 25° C., read-out: Solubility without CD), 50 µg/mL (≈ 0.103 mM); in series [1] (200 mM HP-β-CD in purified water, aqueous with cosolvent or surfactant or cyclodextrin, purified water, 25° C., read-out: Solubility with HP-β-CD (200 mM)), 5530 µg/mL (≈ 11.4 mM); in series [1] (200 mM HP-β-CD in purified water, no L-lysine, aqueous with cosolvent or surfactant or cyclodextrin, solubility in a 200 mM HP-β-CD solution, absence of L-lysine), ~5500 µg/mL and ~11000 µM; in series [1] (500 mM L-lysine solution with 200 mM HP-β-CD, aqueous with cosolvent or surfactant or cyclodextrin, 500 mM L-lysine and 200 mM HP-β-CD, read-out: solubility), 38100 µg/mL (≈ 78.6 mM); in series [1] (500 mM L-lysine solution with 200 mM HP-β-CD, aqueous with cosolvent or surfactant or cyclodextrin, L-lysine 500 mM, 25° C., read-out: Solubility with HP-β-CD (200 mM)) it was 38100 µg/mL (≈ 78.6 mM). Also, the solubility at 7 days in series [1] (500 mM L-lysine solution, no cyclodextrin, aqueous buffer, L-lysine 500 mM, 25° C., read-out: Solubility without CD) stood at 90 µg/mL (≈ 0.185 mM); in series [1] (500 mM L-lysine solution, no cyclodextrin, aqueous buffer, L-lysine (500 mM) separately, no CD, read-out: solubility) it was 90 µg/mL (≈ 0.185 mM); in series [1] (purified water, no cyclodextrin, water, purified water, 25° C., read-out: Solubility without CD) it was 0.56 µg/mL (≈ 0.00115 mM). Moreover, the “increase of aqueous solubility” value in series [1] (200 mM HP-β-CD, no L-lysine, vs purified water) is “approximately 10,000 fold”; in series [1] (500 mM of L-lysine and 200 mM of HP-β-CD), 70,000 fold. The peribronchial inflammation scores entry is listed as “significantly lowered” in series [2] (equal efficacy of all tested formulations) and “significant decrease” in series [3] (p<0.01). The “allergen-induced airway eosinophilic inflammation in BAL” value in series [2] (solution or precipitate, vs placebo) is on record as “lowered”. The BAL eosinophils entry in series [3] (p<0.005) is “significant decrease”. Further, the bronchial hyperresponsiveness entry in series [3] (p<0.05) is on record as “significant decrease”.
